{"source": "patent US20210093582A1", "about": "“COMPOSITIONS FOR REDUCING TRIMETHYLAMINE-N-OXIDE AND RELATED THERAPEUTIC APPLICATIONS” (priority 2019, published 2021)", "format_in_all_cases": "in vivo, C57BL/6 (B6) mice", "key": {"[1]": {"system": "VCAM-1", "assay": "Aortic vascular inflammation gene expression by qPCR (VCAM-1)", "details": "female B6 mice, 1.3% carnitine water, 6 weeks; mRNA normalized to GAPDH", "procedure": "(§1) Six-week-old female C57BL/6 (B6) mice were purchased from BioLASCO (Taipei, Taiwan) and were acclimatized for 1 week. Mice were fed ad libitum with experimental diets, LabDiet Rodent 5001. The animal use protocol listed below has been reviewed and approved by the Institutional Animal Care and Use Committee (NTU105-EL-00115). In the experiment, mice were randomly divided into four groups: normal diet, 1.3% carnitine water, 1.3% carnitine water with 0.05% pterostilbene diet (around 250 mg/kg/day), and 1.3% carnitine water with antibiotic cocktail for 6 weeks. Mice received a cocktail of oral antibiotics (vancomycin 500 mg/L, metronidazole 1 g/L, neomycin 1 g/L, and ampicillin 1 g/L in drinking water) for 6 weeks. […] At the end of the six-week study, mice were euthanized by CO2 asphyxiation.\n(§2) Hepatic and aortic RNA was extracted using TRIzol reagent. Phase separation was performed by adding 200 μl chloroform/1 mlTRIzol. […]\n(§3) Quality of RNA and RNA concentrations were then quantified using NanoDrop 1000 spectrophotometer. […]\n(§4) mRNA levels were determined by quantitative real-time PCR usingStepOnePlus Real-Time PCR system and SYBR Green master mix as compared to constitutively expressed gene (GAPDH) using the relative quantification method (ΔΔCt), Primer sequences for SYBR Green reactions were designed and synthesized by Mission Biotech."}, "[2]": {"system": "E-selectin", "assay": "Aortic vascular inflammation gene expression by qPCR (E-selectin)", "details": "female B6 mice, 1.3% carnitine water, 6 weeks; mRNA normalized to GAPDH", "procedure": "as §1, §2, §3, §4"}, "[3]": {"system": "cecal microbiota", "assay": "Cecal microbiota composition by 16S rRNA gene sequencing", "details": "mouse cecum, 6 weeks", "procedure": "as §1\nMicrobial community composition was assessed by pyrosequencing 16S rRNA genes derived from mouse cecum (n=3 for each group). Total DNA was isolated and purified using InnuSPEED Stool DNA kit according to the manufacturer's instructions. The quality of DNA samples was assessed by NanoDrop 1000 spectrophotometer. DNA samples were sent to Biotools Co., Ltd.for 16S rRNA gene amplification, sequence library construction and sequencing. […] The library DNA was sequenced by IlluminaHiSeq2500 platform, and paired-end reads (250 bp) were generated."}, "[4]": {"assay": "Plasma TMAO level by LC-MS/MS", "details": "female B6 mice, 1.3% carnitine water, 6 weeks", "procedure": "as §1\nLC-MS/MS was used to quantify plasma L-carnitine and TMAO in positive MRM mode, with the instrument water UPLC system (Acquity, Waters, Mildford, Mass., USA) and triple quadrupole mass spectrometer (TQS, Waters Micromass, Manchester, UK). […]\nThe MS parameters were set as follow: 100° C. for the source temperature, 650° C. for the desolvation temperature, 2 L/h for the cone gas flow, 600 L/h for the desolvation gas flow and 1500 V for the capillary voltage. Cone voltage was set a 10 V. Concentrations of each analyte in samples were determined by calibration curves."}, "[5]": {"system": "TNF-α", "assay": "Aortic vascular inflammation gene expression by qPCR (TNF-α)", "details": "female B6 mice, 1.3% carnitine water, 6 weeks; mRNA normalized to GAPDH", "procedure": "as §1, §2, §3, §4"}, "[6]": {"system": "FMO3", "assay": "Hepatic FMO3 mRNA expression by RT-qPCR", "details": "female B6 mice, 6 weeks; normalized to GAPDH", "procedure": "as §1, §2, §3, §4"}}}
{"smiles": "C[N+](C)(C)C[C@H](O)CC(=O)[O-]", "note": "[Carnitine, L-carnitine]", "values": [{"measurement": "expression of VCAM-1 in aortas", "setting": "[1]", "result": "significantly enhanced"}, {"measurement": "expression of E-selectin in aortas", "setting": "[2]", "result": "significantly enhanced"}, {"measurement": "Erysipelotrichia (Turibacter) proportion / relative abundance", "setting": "[3]", "result": "increase"}, {"measurement": "increase in circulating TMAO level compared to ND group", "setting": "[4]", "result": "up to 8 folds"}, {"measurement": "expression of TNF-α in aortas", "setting": "[5]", "result": "significantly enhanced"}, {"measurement": "hepatic FMO3 mRNA expression level", "setting": "[6]", "result": "approximately three-fold increase"}]}
